For 15 molecules, melting point results are on record in patent US7115750B1, “Melanin concentrating hormone antagonist” (Takeda Pharmaceutical Company Limited, priority 1999, dated 2006).

Molecules are shown by their SMILES.

What is called melting point is the temperature, or range, at which the solid turns liquid.

The molecule `CN(C)CCNC(=O)Cc1ccc(NC(=O)c2ccc(NC(=O)c3ccccc3)cc2)cc1` [Example 192, 4-(Benzoylamino)-N-[4-[2-[[2-(dimethylamino)ethyl]amino]-2-oxoethyl]phenyl]benzamide] showed a melting point of 220 to 221 °C.

The molecule `CN(C)CC1=Cc2ccc(NC(=O)c3ccc(-c4ccc(Cl)cc4)nc3)cc2CC1` [Example 164, 6-(4-Chlorophenyl)-N-[6-[(dimethylamino)methyl]-7,8-dihydro-2-naphthalenyl]nicotinamide] registered a melting point of 248 to 249 °C. Take `CN(C)CCC1=Cc2ccc(NC(=O)c3ccc(-c4ccccc4)cc3)cc2CC1` [Example 208, N-[6-[2-(Dimethylamino)ethyl]-7,8-dihydro-2-naphthalenyl][1,1′-biphenyl]-4-carboxamide]: the melting point fell in the range of 148 to 150 °C. The value for `O=C(Nc1ccc2c(c1)CCC(CN1CCCC1)=C2)c1ccc(-c2ccc(F)cc2)nc1` [Example 149, 6-(4-Fluorophenyl)-N-[6-[(1-pyrrolidinyl)methyl]-7,8-dihydro-2-naphthalenyl]nicotinamide] was 225 to 227 °C; that for `N#CC1=C(CN2CCCC2)CCc2cc(NC(=O)c3ccc(-c4ccccc4)cc3)ccc21` [Example 118, N-[5-Cyano-6-(1-pyrrolidinylmethyl)-7,8-dihydro-2-naphthalenyl][1,1′-biphenyl]-4-carboxamide] was 168 to 170 °C; that for `CN(C)CC1CCCc2cc(NC(=O)c3ccc(-c4ccc(F)cc4)cc3)ccc2C1` (stereo not drawn) [Example 45, 4′-Fluoro-N-[6-[(dimethylamino)methyl]-6,7,8,9-tetrahydro-5H-benzo[a]cyclohepten-2-yl][1,1′-biphenyl]-4-carboxamide] was 167 to 169 °C. Turning to `CC(C)CC1=C(CN(C)C)CCc2cc(NC(=O)c3ccc(-c4ccc(Cl)cc4)cc3)ccc21` [Example 113, 4′-Chloro-N-(6-[(dimethylamino)methyl)-5-isobutyl-7,8-dihydro-2-naphthalenyl][1,1′-biphenyl]-4-carboxamide], the melting point fell in the range of 159 to 162 °C. Molecule `CN(C)CC1CCc2cc(NC(=O)c3ccc(C(=O)c4ccccc4)cc3)ccc2C1` (stereo not drawn) [Example 2, 4-Benzoyl-N-[2-(N,N-dimethylamino)methyl-6-tetralinyl]benzamide] showed a melting point of 193 to 196 °C. Consider `Cc1ccc(C2CCN(C(=O)Nc3ccc4c(c3)CCC(CN3CCCC3)=C4)CC2)cc1` [Example 155, 4-(4-Methylphenyl)-N-[6-(1-pyrrolidinylmethyl)-7,8-dihydro-2-naphthalenyl]-1-piperidinecarboxamide], for which the melting point lay within 197 to 198 °C. Then `CN(C)CC1CCc2cc(NC(=O)c3ccc(Oc4ccccc4)cc3)ccc2C1` (stereo not drawn) [Example 9, N-[2-(N,N-Dimethylamino)methyl-6-tetralinyl]-4-phenoxy benzamide], with 137 to 139 °C; and `Cc1cc(-c2ccc(Cl)cc2)ccc1C(=O)Nc1ccc2c(c1)CCC(CN(C)C)C2` (stereo not drawn) [Example 27, 4′-Chloro-N-[6-[(N,N-dimethylamino)methyl]-5,6,7,8-tetrahydro-2-naphthalenyl]-3-methyl[1,1′-biphenyl]-4-carboxamide], with 163 to 165 °C. Consider `CN(C)CC1CCc2cc(NC(=O)c3ccc4c(c3)S(=O)(=O)c3ccccc3C4=O)ccc2C1` (stereo not drawn) [Example 7, N-[2-(N,N-Dimethylamino)methyl-6-tetralinyl]-9,10,10-trioxo-9,10-dihydro-101^6-thioxanthene-3-carboxamide], for which the melting point is 222 to 223 °C (dec.).

For `CN(C)CC1CCc2cc(NC(=O)c3ccc(-c4ccc(-c5ccccc5)cc4)cc3)ccc2C1.Cl` (stereo not drawn), the melting point was 220 °C (dec.). The value for `O=C(Nc1ccc2c(c1)CCC(CN1CCCCC1)C2)c1ccc(-c2ccc(F)cc2)cc1` (stereo not drawn) [Example 54, 4′-Fluoro-N-[6-(1-piperidinylmethyl)-5,6,7,8-tetrahydro-2-naphthalenyl][1,1′-biphenyl]-4-carboxamide] was 179 to 181 °C; that for `Cl.O=C(Nc1ccc(C(O)C2CCCNC2)cc1)c1ccc(-c2ccc(Cl)cc2)cc1` (stereo not drawn) was 195 °C (dec.).
